# According to patent publication US20110217727A1, “METHOD FOR PATTERNING MAGNETIC MATERIALS IN LIVE CELL, METHOD FOR IMAGING PATTERN OF MAGNETIC MATERIALS, AND APPARATUS USED FOR SAME” (MEDISCOV INC., priority 2008, published 2011):
# Tests used:
# CSK-EGFP = CSK-EGFP (Homo sapiens, UniProt P41240); experiment: Fluorescent pattern of CSK-EGFP co-localized with magnetic materials in live HeLa cells under a magnetic field; assay type: cell-based; conditions: HeLa cells transfected with CMV-CSK-EGFP; ligand presented on magnetic particles (MNP); NDGA 25~50 μM; magnetic field applied; FIG. 10(A)
# Source text: (§1) In this embodiment, it was observed whether a magnetized pattern of a plurality of magnetic materials formed by applying a magnetic field could be imaged by fluorescent labels when a surface-modified magnetic material was labeled with a fluorescent label through a mediator indirectly as well as directly. In addition, it was identified whether a fluorescent pattern was formed and overlapped (co-localized) with a pattern formed by magnetic materials in a direction of a line of magnetic force or not.
# (§2) In addition, CSK (GenBank Acc. No. NM—004383.1) or SNF1LK (GenBank Acc. No. BCO38504) which binds to dasatinib was used for another linker constituting a mediator.
# After HeLa cells were subcultured to 5,000˜10,000 cells/well on a 96-well plate, the HeLa cells were transfected by the expression vector DNA prepared as above. […] Magnetic materials coated with dasatinib-biotin were into the cells transfected with DNA by the method mentioned in Example 2, and then NDGA (Nordihydroguaiaretic acid, Sigma) was treated to the final concentration of 25˜50 μM.
# In this embodiment, Olympus fluorescence microscope, FV1000, equipped with the object lens of Uplan Apo 40×/0.85 was used to obtain transmitted images in the cells.
# SNF1LK-EGFP = target: T1, SNF1LK-EGFP (Homo sapiens, UniProt P57059); experiment: Fluorescent pattern of SNF1LK-EGFP co-localized with magnetic materials in live HeLa cells under a magnetic field; assay type: cell-based; conditions: HeLa cells transfected with CMV-SNF1LK-EGFP; ligand presented on magnetic particles (MNP); NDGA 25~50 μM; magnetic field applied; FIG. 10(B)
# T1 construct: ORF(open reading frame) clone without a stop codon was purchased from Open Biosystems; expressed in transfected cells; host or cells: HeLa
# T1 sequence (P57059 whole entry): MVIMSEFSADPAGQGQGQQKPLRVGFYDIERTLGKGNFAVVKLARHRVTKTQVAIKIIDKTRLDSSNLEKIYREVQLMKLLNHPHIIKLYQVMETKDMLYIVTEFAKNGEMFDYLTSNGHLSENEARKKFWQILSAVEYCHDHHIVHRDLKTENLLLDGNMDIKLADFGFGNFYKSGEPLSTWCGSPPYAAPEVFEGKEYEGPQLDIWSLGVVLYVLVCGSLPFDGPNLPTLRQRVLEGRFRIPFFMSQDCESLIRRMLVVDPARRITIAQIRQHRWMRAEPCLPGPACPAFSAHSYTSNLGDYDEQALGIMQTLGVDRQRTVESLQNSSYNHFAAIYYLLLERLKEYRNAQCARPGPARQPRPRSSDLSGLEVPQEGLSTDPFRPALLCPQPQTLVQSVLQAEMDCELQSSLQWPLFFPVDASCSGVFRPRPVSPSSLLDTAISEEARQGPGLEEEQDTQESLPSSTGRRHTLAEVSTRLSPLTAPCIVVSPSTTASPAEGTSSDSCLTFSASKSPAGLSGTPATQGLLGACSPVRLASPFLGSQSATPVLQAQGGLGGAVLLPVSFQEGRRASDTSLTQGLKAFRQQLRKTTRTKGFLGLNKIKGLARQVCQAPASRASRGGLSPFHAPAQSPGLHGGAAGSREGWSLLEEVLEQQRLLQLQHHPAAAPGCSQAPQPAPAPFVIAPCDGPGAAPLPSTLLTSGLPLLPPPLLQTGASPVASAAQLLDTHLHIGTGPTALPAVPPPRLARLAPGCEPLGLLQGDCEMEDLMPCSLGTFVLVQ
# Source text: as §1, §2
# A clone of SNF1LK (GenBank Acc. No. BCO38504) ORF(open reading frame) clone without a stop codon was purchased from Open Biosystems. SNF1LK ORF clone and CSK ORF clone were cloned into pCMV-DEST-EGFP by a known cloning method to produce CMV-SNF1LK-EGFP and CMV-CSK-EGFP expression vectors (Hartley, et al. (2000) DNA cloning using in vitro site-specific recombination. Genome Res. 10, 1788-1795).
# After HeLa cells were subcultured to 5,000˜10,000 cells/well on a 96-well plate, the HeLa cells were transfected by the expression vector DNA prepared as above. […]
# Sequence of CSK-EGFP (P41240 whole entry): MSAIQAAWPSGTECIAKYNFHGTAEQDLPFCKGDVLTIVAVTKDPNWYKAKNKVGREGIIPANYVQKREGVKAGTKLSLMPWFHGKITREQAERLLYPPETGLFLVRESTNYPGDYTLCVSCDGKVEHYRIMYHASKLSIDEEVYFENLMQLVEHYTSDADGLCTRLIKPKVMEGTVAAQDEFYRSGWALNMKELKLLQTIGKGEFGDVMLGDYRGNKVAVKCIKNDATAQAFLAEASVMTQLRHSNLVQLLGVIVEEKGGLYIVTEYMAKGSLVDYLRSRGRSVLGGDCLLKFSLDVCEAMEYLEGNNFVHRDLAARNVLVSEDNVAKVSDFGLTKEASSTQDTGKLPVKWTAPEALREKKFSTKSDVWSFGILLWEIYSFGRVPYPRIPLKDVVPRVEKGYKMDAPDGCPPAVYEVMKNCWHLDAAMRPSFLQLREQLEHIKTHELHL
smiles,measurement,setting,value
"Cc1nc(Nc2ncc(C(=O)Nc3c(C)cccc3Cl)s2)cc(N2CCN(CCO)CC2)n1 [dasatinib, N-(2-chloro-6-methyl-phenyl)-2-(6-(4-(2-hydroxyethyl)-piperazin-1-yl)-2-methylpyrimidin-4-ylamino)thiazole-5-carboxamide]",fluorescent pattern of EGFP in a magnetized direction (direction of a line of magnetic force),CSK-EGFP,identified
same,fluorescent pattern of EGFP in a magnetized direction (direction of a line of magnetic force),SNF1LK-EGFP,identified
